Reference: US20040242538A1, “Method to improve complexation efficacy and produce high-energy cylodextrincomplexes” (priority 2001, published 2004)
In brackets after ≈: the same amount, converted by molar mass.

Key:
[1] = Stability of the drug in complexes during heating in the vacuum oven (HPLC); type: physicochemical; settings: complexes heated at 90° C. for several days
Method: All solutions were lyophilized, then the obtained complex was sieved through a 300 μm sieve and heated in a vacuum oven at 60-90° C. for several days, depending on the drug being investigated.
The amount of drug per gram sample was determined on a high performance liquid chromatographic (HPLC) component system, consisting of ConstaMetric 3200 solvent delivery system operated at 1.5 ml/min, a SpectroMonitor 3200 UV/VIS variable-wavelength detector, a Merck-Hitachi AS-2000A autosampler, Merck Hitachi D-2500 Chromato-Integrator and a Phenomex ODS 5 μm (150×4.6 mm) column.
Selected Basic drug A complexes were analysed after heating in the vacuum oven at 90° C. for several days.

physchem = settings: pH 7.4, aqueous buffer, thermodynamic from solid
Method: To investigate this special property of the complexes, 50 mg of complex containing the basic drug was dissolved in 25 ml of phosphate buffer 0.1 M, pH 7.4. 100 μl samples were taken from this solution and measured for 1-96 hours depending on the complex being investigated. […] Solid drug particles with and without cyclodextrin were also weighed and placed in the buffer to show the difference in solubility between samples of the drug alone, drug and cyclodextrin in a standard mixture, and drug in complex with cyclodextrin.
The solid complexes were heated in a vacuum oven for 4 days at 88° C. and 0.13×10^2 Pa. Each complex contained about 0.2 equivalents of acetic acid. A 50 mg sample of each complex was dissolved in 25 ml of the buffer. […] 12 mg of solid Basic drug A particles were also dissolved in 50 ml of the buffer with or without 38 mg of HPβCD to show the effect of complexing.

stability during heating in the vacuum oven [1]: stable during heating in the vacuum oven
solubility (physchem): 34 µg/mL (≈ 75.8 µM)
SMILES: Cc1ccc(N2CCN(C)CC2)c2c1CC[C@@H](NC(=O)c1ccc(N3CCOCC3)cc1)C2 [Basic drug A, (R)-N-[5-methyl-8-(4-methylpiperazin-1-yl)-1,2,3,4-tetrahydro-2-naphthyl]-4-morpholinobenzamide]
